{"source": "patent US7446204B2", "about": "“Amino substituted aryloxybenzylpiperidine derivatives” (H. Lundbeck A/S, priority 2004, dated 2008)", "origin": "cited, not measured here", "key": {"MCH1 receptor [1]": {"target": "T1, MCH1 receptor (Cavia porcellus, UniProt H0VKT7)", "T1 construct": "host or cells: living guinea pigs (endogenous receptor)", "T1 sequence (H0VKT7 1-355)": "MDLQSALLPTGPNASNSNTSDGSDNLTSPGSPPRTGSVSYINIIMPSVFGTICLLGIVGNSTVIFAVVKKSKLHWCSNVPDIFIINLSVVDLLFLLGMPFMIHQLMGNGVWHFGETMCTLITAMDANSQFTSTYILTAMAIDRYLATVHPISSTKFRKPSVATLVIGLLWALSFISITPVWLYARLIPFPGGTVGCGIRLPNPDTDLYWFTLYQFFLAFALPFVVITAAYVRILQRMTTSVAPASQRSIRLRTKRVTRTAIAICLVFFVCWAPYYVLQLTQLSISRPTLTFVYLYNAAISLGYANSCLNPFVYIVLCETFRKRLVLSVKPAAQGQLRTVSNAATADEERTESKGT", "conditions": "guinea pig maternal-separation vocalization; Borowsky et al., Nature Medicine 2002"}, "MCH1 receptor [2]": {"target": "T2, MCH1 receptor (Rattus norvegicus, UniProt P97639)", "T2 construct": "host or cells: living rats (endogenous receptor)", "T2 sequence (P97639 whole entry)": "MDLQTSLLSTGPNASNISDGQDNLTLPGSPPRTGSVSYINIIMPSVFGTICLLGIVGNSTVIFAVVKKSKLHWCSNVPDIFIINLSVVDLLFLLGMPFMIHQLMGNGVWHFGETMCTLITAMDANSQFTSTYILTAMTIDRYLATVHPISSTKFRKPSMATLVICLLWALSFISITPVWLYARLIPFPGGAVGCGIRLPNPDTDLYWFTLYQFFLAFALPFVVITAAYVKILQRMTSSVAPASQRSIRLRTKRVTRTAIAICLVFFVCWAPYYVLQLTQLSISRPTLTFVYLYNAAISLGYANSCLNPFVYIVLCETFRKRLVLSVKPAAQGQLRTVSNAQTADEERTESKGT", "conditions": "rat social interaction; Borowsky et al., Nature Medicine 2002"}, "MCH1 receptor [3]": {"target": "T2, MCH1 receptor", "conditions": "rat forced-swim; Borowsky et al., Nature Medicine 2002"}}, "note": "Read-outs that look alike come from different tables or passages of the source."}
{"smiles": "COCC1=C(C(=O)OC)[C@H](c2ccc(F)c(F)c2)N(C(=O)NCCCN2CCC(c3cccc(NC(C)=O)c3)CC2)C(=O)N1", "note": "[SNAP-7941]", "values": [{"measurement": "profile in behavioral model of depression and/or anxiety", "setting": "MCH1 receptor [1]", "result": "profile similar to clinically used anti-depressants and anxiolytics"}, {"measurement": "profile in behavioral model of depression and/or anxiety", "setting": "MCH1 receptor [2]", "result": "profile similar to clinically used anti-depressants and anxiolytics"}, {"measurement": "profile in behavioral model of depression and/or anxiety", "setting": "MCH1 receptor [3]", "result": "profile similar to clinically used anti-depressants and anxiolytics"}]}
